Reference: article PMC6413339 (EBioMedicine, 2019)
Read-outs that look alike come from different tables or passages of the source.

Assays:
[1] = test system: MV4–11-luc cells; assay: In vivo efficacy, orthotopic human AML model; conditions: 25 mg/kg i.p. three times a week (MWF); NSG or NRG mice
Experimental: The in vivo efficacy of compounds was assessed in an orthotopic human AML model in NSG (NOD scid gamma, NOD-scid IL2Rg^null) mice that were bred at University of Maryland Baltimore (mating pairs acquired from Jackson Laboratories; Maine). […]. Three days later, engraftment was assessed by imaging on a Xenogen IVIS-2 Imaging System (Alameda) after an intraperitoneal (IP) injection of 150 mg/kg luciferin. Mice were sorted into four or five groups (n = 5) so that mean intensity (i.e., disease burden) was equal. Dosing started on day of sorting. Compounds were dissolved in 85% PBS (pH 7.4) buffer containing 10% DMSO and 5% Cremophore. The vehicle (buffer without compounds) was used as control. Mice were injected 3 to 5 days per week via IP injection. Mice were weighed on day of dosing and imaged once per week. […]. All mice were housed in a 12-h light/dark cycle with access to food and water ad libitum. Studies were performed with Institutional Animal Care and Use Committee (UMB and Purdue University) approval.
[…]. Female mice were dosed daily for 5 days via intraperitoneal injection and then monitored for an additional week for weight loss, a sign of toxicity in mice. […] To evaluate the anti-leukemic efficacy in vivo, six-week-old female NSG or NRG mice were injected intravenously with FLT3-ITD expressing acute myeloid leukemia cells (MV4–11), expressing luciferase. […] Dosing (i.p) with the compounds was then started. The mice were dosed with 25 mg/kg of the compounds three times a week (MWF). […] […].

[2] = molecular target: T1, FLT3 (Homo sapiens, UniProt P36888); assay: Cell-free kinase assay, single dose (Reaction Biology, ADP-Glo); format: biochemical; conditions: inhibitor 500 nM; 100 μM ATP; average of duplicate
T1 construct: purchased Invitrogen PV3182
T1 sequence (P36888 564-993 limits assumed): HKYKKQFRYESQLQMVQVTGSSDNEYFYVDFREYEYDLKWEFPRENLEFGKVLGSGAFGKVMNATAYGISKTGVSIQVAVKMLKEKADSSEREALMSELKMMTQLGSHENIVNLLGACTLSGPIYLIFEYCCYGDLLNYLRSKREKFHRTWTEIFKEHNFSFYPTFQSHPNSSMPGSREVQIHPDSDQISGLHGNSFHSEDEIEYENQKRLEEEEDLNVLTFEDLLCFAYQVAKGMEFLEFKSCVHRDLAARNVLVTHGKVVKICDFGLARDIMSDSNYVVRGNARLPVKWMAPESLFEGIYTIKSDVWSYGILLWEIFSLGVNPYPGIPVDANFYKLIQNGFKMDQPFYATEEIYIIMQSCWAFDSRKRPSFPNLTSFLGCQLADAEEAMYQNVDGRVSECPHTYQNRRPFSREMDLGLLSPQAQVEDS
Experimental: Cell-free kinase activity assays were performed at Reaction Biology Corporation. […] DMSO was used as control. […] Experiments were performed in duplicates. The concentrations of kinases and substrates used in the assays are indicated on Table S1. Kinase activity was quantified using the ADP-Glo™ Kinase Assay System (Promega, Madison, WI) following the manufacturer's recommendations.

[3] = test system: MOLM-14 (ITD, D835Y) cells; assay: Antiproliferative activity (CellTitre-Blue, 72 h); format: cell-based, human; conditions: 72 h incubation, triplicates, read-out: IC50 (mean ±SD, nM) MOLM-14 (ITD, D835Y)
Experimental: (§1) Cells were seeded into 96-well tissue culture-treated plates at 2.0 × 10^4 cells/mL for up to 24 h. DMSO stock solutions of compounds were serially diluted first in DMSO and subsequently into RPMI before being added to the cell cultures in triplicates, with 10 μM being the highest tested concentration. The plates were incubated for 72 h as above. The CellTitre-Blue assay (Promega, Madison WI) was then added to the cultures and incubated a further 4 h before the fluorescence measured following the manufacturers recommendations. The fluorescence data from compounds were normalized to that DMSO and the resulting data fitted to a non-linear regression equation to obtain IC50 using GraphPad Prism 5.0 Software (La Jolla, CA, USA).

[4] = test system: MV4–11 cells; assay: Antiproliferative activity (CellTitre-Blue, 72 h); format: cell-based, human; conditions: for IC50: 72 h incubation, triplicates, read-out: IC50 (mean ±SD, nM) MV4–11
Experimental: as §1

[5] = test system: MOLM-14 cells; assay: Antiproliferative activity (CellTitre-Blue, 72 h); format: cell-based, human; conditions: 72 h incubation, triplicates, read-out: IC50 (mean ±SD, nM) MOLM-14
Experimental: as §1

[6] = test system: MOLM-14 (ITD, F691 L) cells; assay: Antiproliferative activity (CellTitre-Blue, 72 h); format: cell-based, human
Experimental: as §1

[7] = molecular target: T2, Src (Homo sapiens, UniProt P12931); assay: Cell-free kinase assay (Reaction Biology, ADP-Glo); format: biochemical; conditions: inhibitor 500 nM; 100 μM ATP; average of duplicate
T2 construct: purchased Invitrogen PR4336E
T2 sequence (P12931 whole entry): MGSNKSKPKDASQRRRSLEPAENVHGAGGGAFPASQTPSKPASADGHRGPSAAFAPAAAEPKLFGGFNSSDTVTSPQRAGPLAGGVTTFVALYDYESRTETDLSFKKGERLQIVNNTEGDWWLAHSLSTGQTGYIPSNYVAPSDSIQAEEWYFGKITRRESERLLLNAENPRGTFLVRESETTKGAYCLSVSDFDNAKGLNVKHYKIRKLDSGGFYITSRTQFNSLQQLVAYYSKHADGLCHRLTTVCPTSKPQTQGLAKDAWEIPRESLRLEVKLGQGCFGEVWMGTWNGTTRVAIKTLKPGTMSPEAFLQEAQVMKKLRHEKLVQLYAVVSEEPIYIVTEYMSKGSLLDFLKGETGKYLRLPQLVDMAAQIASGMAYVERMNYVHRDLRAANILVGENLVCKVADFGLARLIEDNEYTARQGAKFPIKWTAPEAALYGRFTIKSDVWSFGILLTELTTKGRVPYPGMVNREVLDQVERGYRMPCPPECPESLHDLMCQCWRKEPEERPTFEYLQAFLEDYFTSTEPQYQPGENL
Experimental: Cell-free kinase activity assays were performed at Reaction Biology Corporation. Briefly, kinases were incubated with substrates, 100 μM ATP and a 3-fold serial dilution of compounds starting at 1 μM. DMSO was used as control. […] Experiments were performed in duplicates. The concentrations of kinases and substrates used in the assays are indicated on Table S1. Kinase activity was quantified using the ADP-Glo™ Kinase Assay System (Promega, Madison, WI) following the manufacturer's recommendations.

[8] = Homo sapiens, MOLM-14, 72 h, 72 h incubation, triplicates, read-out: IC50 (mean ±SD, nM) MOLM-14 (ITD, F691 L)

Compound	inhibition at 0.5 µM [2] [%]	IC50 ([3]; Homo sapiens, MOLM-14, 72 h) [nM]	IC50 ([5]; Homo sapiens, MOLM-14) [nM]	IC50 [6, 8] [nM]	inhibition at 0.5 µM [7] [%]	also measured
Cc1ncc(C(=O)Nc2ccc(CN3CCN(C)CC3)c(C(F)(F)F)c2)cc1C#Cc1c(N)ncc2ccccc12 [Compound 5]	99	13 ± 0.4	2.8 ± 0.02	1.5 ± 0.1	100	reduction in leukemia burden [1]: > 99%; IC50 ([4]; Homo sapiens, MV4-11, 72 h): 0.4 ± 0.004 nM
CC1(COc2ccc3c(c2)ncn3-c2ccc3cccc(N4CCC(N)CC4)c3n2)COC1 [Crenolanib, reference compound]	99	6.6 ± 0.03	4.5 ± 0.8	15.6 ± 0.4		IC50 ([4]; Homo sapiens, MV4-11, 72 h): 3.1 ± 0.06 nM
Cc1ccc(C(=O)Nc2ccc(CN3CCN(C)CC3)c(C(F)(F)F)c2)cc1C#Cc1cnc2cccnn12 [Ponatinib, reference compound]			0.5 ± 0.1			IC50 ([3]; Homo sapiens, MOLM-14): 52.6 ± 0.3 nM; IC50 ([4]; Homo sapiens, MV4-11): 0.1 ± 0.001 nM; IC50 ([6]; Homo sapiens, MOLM-14, 72 h incubation, triplicates, read-out: IC50 (mean ±SD, nM) MOLM-14 (ITD, F691 L)): 6.8 ± 0.03 nM
Cc1ccc(C(=O)Nc2ccc(CN3CCN(C)CC3)c(C(F)(F)F)c2)cc1C#Cc1c(N)ncc2ccc(Cl)cc12 [Compound 8]	97					IC50 ([4]; Homo sapiens, MV4-11, 72 h): ~0.5 nM
Cc1ncc(C(=O)Nc2ccc(CN3CCN(C)CC3)c(C(F)(F)F)c2)cc1C#Cc1c(N)ncc2ccc(Cl)cc12 [Compound 9]	98	10.4 ± 0.3	2.3 ± 0.1	6.9 ± 0.05	98	IC50 [4]: 0.4 ± 0.04 nM; IC50 ([4]; Homo sapiens, MV4-11, 72 h): ~0.5 nM
Cc1ccc(C(=O)Nc2ccc(CN3CCN(C)CC3)c(C(F)(F)F)c2)cc1C#Cc1cnc(N)c2ncccc12 [Compound 19]	99				98	
Cc1ccc(C(=O)Nc2ccc(CN3CCN(C)CC3)c(C(F)(F)F)c2)cc1C#Cc1c(N)ncc2ccc(F)cc12 [Compound 6]	90				99	
Cc1ccc(C(=O)Nc2ccc(CN3CCN(C)CC3)c(C(F)(F)F)c2)cc1C#Cc1c(N)ncc2ccccc12 [Compound 4]	93				100	
Cc1ccc2cnc(N)c(C#Cc3cc(C(=O)Nc4ccc(CN5CCN(C)CC5)c(C(F)(F)F)c4)ccc3C)c2c1 [Compound 12]	98				100	
Cc1ncc(C(=O)Nc2ccc(CN3CCN(C)CC3)c(C(F)(F)F)c2)cc1C#Cc1cnc(N)c2ccc(F)cc12 [Compound 17]	98				98	
COc1ccc2c(N)ncc(C#Cc3cc(C(=O)Nc4ccc(CN5CCN(C)CC5)c(C(F)(F)F)c4)cnc3C)c2c1 [Compound 14]	98				99	
Cc1ccc(C(=O)Nc2ccc(CN3CCN(C)CC3)c(C(F)(F)F)c2)cc1C#Cc1cncc2ncccc12 [Compound 23]	99				99	
Cc1ccc(C(=O)Nc2ccc(CN3CCN(C)CC3)c(C(F)(F)F)c2)cc1C#Cc1cnc(N)c2ccccc12 [Compound 15]	100	≤ 15		≤ 15	97	
COc1ccc2cnc(N)c(C#Cc3cc(C(=O)Nc4ccc(CN5CCN(C)CC5)c(C(F)(F)F)c4)cnc3C)c2c1 [Compound 18]						%FLT3 inhibition [2]: 97%; IC50 [3]: 11.1 ± 0.08 nM; IC50 [4]: 0.2 ± 0.001 nM; IC50 MV4-11 ([4]; Table S2, superscript d, the values are: IC50): 0.2 nM; IC50 [5]: 0.2 ± 0.002 nM; IC50 ([6]; 72 h incubation, triplicates, read-out: IC50 (mean ±SD, nM) MOLM-14 (ITD, F691 L)): 1.1 ± 0.04 nM; IC50 ([6]; Table S2, superscript g, the values are: IC50): 1.1 nM; %Src inhibition [7]: 98%
Cc1ncc(C(=O)Nc2ccc(CN3CCN(C)CC3)c(C(F)(F)F)c2)cc1C#Cc1cncc2ncccc12 [Compound 24]	100	3 ± 0.3	0.2 ± 0.01	1.8 ± 0.08	98	IC50 ([4]; Homo sapiens, MV4-11, 72 h): 0.2 ± 0.009 nM

Second part, led by results:

inhibition at 0.5 µM [2] [%]	IC50 ([3]; Homo sapiens, MOLM-14, 72 h) [nM]	IC50 ([5]; Homo sapiens, MOLM-14) [nM]	IC50 [6, 8] [nM]	inhibition at 0.5 µM [7] [%]	Compound	also measured
81				99	Cc1ccc(C(=O)Nc2ccc(CN3CCN(C)CC3)c(C(F)(F)F)c2)cc1C#Cc1nc(Br)cnc1N [Compound 3]	
99				99	Cc1ccc(C(=O)Nc2ccc(CN3CCN(C)CC3)c(C(F)(F)F)c2)cc1C#Cc1ccc(N)nc1 [Compound 2]	
96				99	Cc1ccc(C(=O)Nc2ccc(CN3CCN(C)CC3)c(C(F)(F)F)c2)cc1C#Cc1cccnc1N [Compound 1]	
	23 ± 0.5	0.5 ± 0.02	48.5 ± 0.6		CC(C)(C)c1cc(NC(=O)Nc2ccc(-c3cn4c(n3)sc3cc(OCCN5CCOCC5)ccc34)cc2)no1 [Quizartinib, reference compound]	IC50 ([4]; Homo sapiens, MV4-11, 72 h): 0.4 ± 0.02 nM
80				20	Cc1ncc(C(=O)Nc2ccc(CN3CCN(C)CC3)c(C(F)(F)F)c2)cc1C#Cc1cnc(NC2CC2)c2ncccc12 [Compound 21]	
43	≤ 15		≤ 15	16	Cc1ccc(C(=O)Nc2ccc(CN3CCN(C)CC3)c(C(F)(F)F)c2)nc1C#Cc1c(N)ncc2ccc(Cl)cc12 [Compound 11]	
		16.1 ± 0.02			CO[C@@H]1[C@H](N(C)C(=O)c2ccccc2)C[C@H]2O[C@]1(C)n1c3ccccc3c3c4c(c5c6ccccc6n2c5c31)C(=O)NC4 [Midostaurin, reference compound]	
75				93	Cc1cnc(C(=O)Nc2ccc(CN3CCN(C)CC3)c(C(F)(F)F)c2)cc1C#Cc1c(N)ncc2ccc(Cl)cc12 [Compound 10]	
100	4.7 ± 0.03	1.4 ± 0.03	1.1 ± 0.04	98	Cc1ccc2cnc(N)c(C#Cc3cc(C(=O)Nc4ccc(CN5CCN(C)CC5)c(C(F)(F)F)c4)cnc3C)c2c1 [Compound 13]	IC50 ([4]; Homo sapiens, MV4-11, 72 h): 0.4 ± 0.006 nM
98				100	Cc1ccc(C(=O)Nc2ccc(CN3CCN(C)CC3)c(C(F)(F)F)c2)cc1C#Cc1cncc2ccccc12 [Compound 22]	
98				100	Cc1ncc(C(=O)Nc2ccc(CN3CCN(C)CC3)c(C(F)(F)F)c2)cc1C#Cc1cnc(N)c2ccccc12 [Compound 16]	
